Results reported in US12343397B2, “Drug-resistant immune cells and methods of use thereof” (Regents of the University of Minnesota, priority 2018, dated 2025).

Columns and labels:
[1] = test system: lethally irradiated BALB/c recipients of C57BL/6 (B6) donor bone marrow + T cells; experiment: Steroid GVHD prophylaxis and therapy in allogeneic BMT recipients; type: in vivo, mouse; conditions: for GVHD therapy outcome / survival vs vehicle: 10 mg/kg/day day 3-28, 1.5×10^6 T cells
Procedure: FIG. 8 depicts steroid dose responses for GVHD prophylaxis in allogeneic BMT recipients. n=8 per group. BALB/c mice were lethally irradiated, given B6 BM+2 M T cells and steroids at the indicated doses from day 1-28. A low rapamycin dose (day 0-14, 3 times a week through day 27) was used as a comparator.
FIG. 9 depicts steroid based GVHD therapy in allogeneic BMT recipients. n=8 per group. BALB/c mice were lethally irradiated, given B6 BM+1.5 M T cells and steroids at 10 mg/kg/day day 3-28 or 4-28 as indicated.
FIG. 10 depicts steroid based GVHD therapy in allogeneic BMT recipients. n=15 (BM-Circles), 16 (Vehicle-Squares) and 25 (Prednisolone-Triangles). BALB/c mice were lethally irradiated, given B6 BM+1.5 M T cells and steroids at 10 mg/kg/day day 3-28.
To test whether gene modified (GR2-CRISPR/Cas9) or gene edited (GR2-CRISPR/Cas9/AAV-CaN mut.) Tregs have increased efficacy in vivo in the presence of glucocorticoid, how glucocorticoid (methyl-prednisolone) effects GVHD in preclinical mouse models was first determined. […] For these reasons, as well as the more logistically feasible and cost effective benefits of an allogeneic GVHD model, optimized steroid use in allogeneic recipients for GVHD prevention and therapy were first tested, and then applied to a xenogeneic model to enable testing of the human Treg product. Using lethally irradiated BALB/c recipients of C57BL/6 (B6) donor bone marrow+2×10^6 T cells, methyl-prednisolone at doses of 1, 3, and 6 mg/kg/dose were tested days 1-28 vs. rapamycin at 0.5 mg/kg/day, days 0-14 then 3×/week through day 27. The T cell dose was reduced to 1.5×10^6 and moved to GVHD therapy beginning on day 3 or day 4 (rather than day 1 prophylaxis) and compared no treatment to vehicle to prednisolone (n=8/group).
Delaying prednisolone treatment until day 4 was ineffective. Next, an experiment was performed to determine whether prednisolone at 10 mg/kg d3-28 was reproducible, and it was observed that this was the case (FIG. 10).

[2] = test system: xeno-GVHD model; experiment: Xenogeneic GVHD model (NSG mice given human PBMC); type: in vivo; conditions: 30 mg/kg, day 0-28
Procedure: FIGS. 11A-11D depicts the monitoring of GVHD in mice. Human PBMC (15×10^6) were injected into irradiated (50 rad) NSG mice±methylprednisolone (15 mg/kg), and signs of GVHD were monitored. FIG. 11A depicts a schematic illustration of the experiments indicating cohorts (n=7 mice each), dosing schedule, and analysis points. FIG. 11B depicts Kaplan-Meier survival curves for mice receiving PBMC only, or PBMC+prednisolone (p=0.104). FIG. 11C depicts disease progression monitored by weight loss (p=not significant). FIG. 11D depicts disease progression monitored by quantitating the number of PBMC-derived CD45+, CD4+, CD8+, and CD4+Foxp3+ T cells (p<0.03, <0.05, <0.03, and not significant, respectively). Animals were bled on day 19 for assessment.
FIGS. 12A-12D depicts the monitoring of GVHD in mice. […] FIG. 12B depicts Kaplan-Meier survival curves for mice receiving PBMC only, or PBMC+CNI (PBMC only vs. FK506 (36 mg/kg), p≤0.04). FIG. 12C depicts disease progression monitored by weight loss (p=not significant). FIG. 12D depicts disease progression monitored by quantitating the number of PBMC-derived CD45+, CD4+, CD8+, and CD4+Foxp3+ T cells (p<0.03, <0.05, <0.02, and not significant, respectively). Animals were bled on day 18 for assessment.
A follow up study has shown that xeno-GVHD pathology induced with 200 rad+1×10^7 human PBMC is more reproducible, and median survival is reduced from ˜25 days to ˜20 days.

[3] = test system: exon 2 of NR3C1; experiment: Surveyor nuclease assay of NR3C1 gRNA candidates in human primary T-cells; type: cell-based; conditions: Cas9 with gRNA
Procedure: FIGS. 3A-3D depicts the process of gene editing of NR3C1 glucocorticoid receptor by CRISPR guide RNA and Cas9. FIG. 3A depicts a schematic illustrating the process of gene transfer. T cells or Tregs were harvested and activated with CD3/CD28 beads for 48 h (fresh) or 72 h (frozen). The Neon electroporation device was used to deliver Cas9 mRNA or protein with a gene specific guide RNA. FIG. 3B depicts a schematic illustrating NR3C1 gene targeting. Four sites in exon 2 were identified and tested. Four candidates were identified. The candidates were tested using the Surveyor method. FIG. 3C depicts a schematic illustrating the Surveyor assay. Gene modified (“mutant amplicon”) and unmodified (“wild type amplicon”) are hybridized resulting in homo- or heteroduplexes. Heteroduplexes caused by pairing of gene edited and wild type sequences are cleaved by the Surveyor enzyme resulting in predictable DNA fragments.
Using these parameters the use of CRISPR/Cas9 engineering of T-cells was pursued using the experimental schema as shown in FIG. 3A. Human primary T-cells were grown in the presence of IL-2 and activated with CD3/CD28 beads for 48-72 hours. The CRISPR/Cas9 reagents used a guide RNA transcript (Synthego) and recombinant Cas9 peptide (Aldevron) that were delivered using the Neon electroporation device (ThermoFisher). […]

[4] = test system: Tregs; experiment: Survival of CRISPR/Cas9 NR3C1 knockout Tregs ± Dexamethasone; type: cell-based, human; conditions: Tregs electroporated with CRISPR/Cas9 RNP; Dexamethasone 30 μg/ml, 48 hours
Procedure: FIGS. 4A-4D depicts CRISPR/Cas9-mediated NR3C1 knockout in Tregs. Guide RNA candidates GR1 and GR2 were electroporated into activated Tregs as a ribonucleoprotein particle (RNP) with the Cas9 peptide. FIG. 4A depicts a schematic illustrating the culture process. FIG. 4B depicts a plot assessing the survival of Tregs after 72 h 30 μg/mL of Dexamethasone was added in the conditions as indicated. […] The NR3C1 locus was amplified from the pool of cells and indel analysis was performed by TIDE. The total gene modification rates were 35% and 44% for the pre- and post-Dexamethasone cells, respectively. The graph corresponds to the indel pattern observed in each population. […]
To determine whether the GR1 and GR2 guides were also capable of knocking out the NR3C1 locus in cultures of clinically-relevant Tregs, banked Tregs were thawed and re-stimulated with anti-CD3/28 beads in high dose IL-2 (300 U/ml). […] After 2 days, Treg cultures were harvested and were re-cultured±Dexamethasone (30 μg/ml) for an additional 48 hours (7 days total), at which time cultures were harvested, and relative survival was assessed by flow cytometry using a viability dye and counting beads. […] As such, the indel pattern using a sequence trace decomposition algorithm called TIDE (tracking of indels by decomposition) was assessed. Pre- and post-Dexamethasone exposure samples were analyzed (FIGS. 4C and 4D, respectively). […]

[5] = test system: NR3C1 locus; experiment: Indel analysis of the NR3C1 locus by TIDE; type: cell-based, human
Procedure: FIGS. 4A-4D depicts CRISPR/Cas9-mediated NR3C1 knockout in Tregs. Guide RNA candidates GR1 and GR2 were electroporated into activated Tregs as a ribonucleoprotein particle (RNP) with the Cas9 peptide. FIG. 4A depicts a schematic illustrating the culture process. FIG. 4B depicts a plot assessing the survival of Tregs after 72 h 30 μg/mL of Dexamethasone was added in the conditions as indicated. […] The NR3C1 locus was amplified from the pool of cells and indel analysis was performed by TIDE. The total gene modification rates were 35% and 44% for the pre- and post-Dexamethasone cells, respectively. The graph corresponds to the indel pattern observed in each population. Without being bound by any theory, it is predicted that out of frame indels (e.g., those non-divisible by three) will result in gene inactivation. Y-axis indicates the number of indels as a total percentage. X-axis indicates indels relative to unmodified (shown as bar in position 0). Deletions are shown to the left of the 0 position and each bar is between 1-10 bp away from the target site. Insertions of +1 bp are shown to the right of the 0 position. Asterisks show +1, −1, and −7 bp insertions/deletions and the frequency of these events increased with Dexamethasone exposure (comparing FIG. 4C with FIG. 4D), Dark black bars in FIGS. 4C-4D indicate editing events <0.5%.
To determine whether the GR1 and GR2 guides were also capable of knocking out the NR3C1 locus in cultures of clinically-relevant Tregs, banked Tregs were thawed and re-stimulated with anti-CD3/28 beads in high dose IL-2 (300 U/ml). On day 3, the Tregs were electroporated as above in the absence or presence of GR1 or GR2 GRISPR/Cas9 RNP and returned to culture in optimal expansion conditions. After 2 days, Treg cultures were harvested and were re-cultured±Dexamethasone (30 μg/ml) for an additional 48 hours (7 days total), at which time cultures were harvested, and relative survival was assessed by flow cytometry using a viability dye and counting beads. The dose of 30 μg/mL was identified by performing beta testing in Jurkat and primary T-cells that had undergone CRISPR/Cas9 gene modification and Dexamethasone dosing from 0-100 μg/mL. […] CRISPR/Cas9 gene repair by non-homologous endjoining results in insertions and deletions (indel) proximal to the gRNA binding site. As such, the indel pattern using a sequence trace decomposition algorithm called TIDE (tracking of indels by decomposition) was assessed. Pre- and post-Dexamethasone exposure samples were analyzed (FIGS. 4C and 4D, respectively). The frequency of out of frame indels that are predicted to result in gene inactivation in Tregs prior to Dexamethasone addition was ˜35%, which is similar to what was experimentally observed for peripheral blood T cells treated with GR2 GRISPR/Cas9 reagents (˜40%). Following culture in Dexamethasone, the frequency of indels increased to 44%. Without being bound by any theory, this indicates preferential survival of gene modified Tregs.

[6] = test system: exon 2 of the NR3C1 gene; experiment: HDR in Tregs, inside-out PCR and Sanger sequencing; type: cell-based, human; conditions: AAV-6 donor at various MOI
Procedure: FIGS. 5A-5C depicts homology directed repair (HDR) in Tregs. FIG. 5A depicts the gene targeting strategy. A calcineurin resistant gene co-expressed with GFP was designed such that it could be targeted to exon 2 of the NR3C1 gene resulting in a loss of 21 amino acids. The donor was encapsulated in AAV-6 particles and screening was performed using an inside/out PCR with primers (indicated by horizontal arrows) within the donor and outside of the donor at the target locus. FIG. 5B depicts gene targeting optimization. Activated Tregs were electroporated with NR3C1 Cas9 RNPs and the different indicated amounts of AAV-6 donor were added. Inside/out PCR results are shown with Sanger sequencing confirmation of the junction between the donor and the adjacent locus sequence shown in FIG. 5C.
To achieve dual drug (steroid and calcineurin inhibitor) resistance, Jurkat and primary T-cells were used to define the conditions for optimal homology directed repair (HDR). Cas9 mRNA and Cas9 RNP approaches were compared and assessed for their ability to facilitate HDR using a reporter HDR construct at the human AAVS1 locus. […] Flanking the calcineurin resistance gene were donor targeting arms homologous to the NR3C1 gene such that insertion disrupted exon 2 with concomitant deletion of 21 amino acids (FIG. 5A). […]

[7] = test system: NR3C1; experiment: Base editing of NR3C1 in Tregs (Sanger sequencing, EditR); type: cell-based, human; conditions: Tregs electroporated with base editor mRNA and guide RNA
Excerpt: Treg cells were base edited by electroporation of the base editor as protein or mRNA encoding said base editor, along with a guide RNA to target bases for editing with said base editor. The genomic DNA of the edited cells was then isolated and the target locus was PCR amplified. The PCR amplified locus was then sequenced by Sanger sequencing. Base conversion was observed by identifying multiple peaks at the target site. The PCR amplicon sequence data then underwent decomposition using the EDITR method to quantify base editing frequency (see, Kluesner et al. “EditR: A novel base editing quantification software using Sanger sequencing”.DOI: 10.1101/213496.2017). For FIGS. 19-22, and 24-27, the base edited sequences are marked by red open boxes.
FIG. 16 depicts a schematic showing base editing wherein the CRISPR deactivated or nicking DNA binding domain is a dCas9, and the base-editing domain is a cytidine deaminase. Base editors can be delivered as RNP complexes whereby the guide RNA may or may not be modified with phosphorothioate bonds to prevent intracellular degradation by endogenous RNAses. […] Further, the sequences at exon:intron boundaries defined as splice donors and acceptors that are required for intron excision and proper open reading frame orientation and expression were also targeted for conversion in order to disrupt splicing. […]

Row | Compound | GVHD therapy outcome / survival vs vehicle [1] | GVHD therapy outcome / survival vs vehicle ([1]; listed as Prednisolone) | GVHD therapy outcome ([1]; treatment delayed until day 4) | average weight [2] | survival advantage [2] | median survival ([2]; controls 29 days) [days] | human CD4+ and CD8+ T cells in the blood ([2]; day 19) | nuclease activity (Surveyor DNA fragmentation products) [3] | survival in the presence of Dexamethasone [4] | frequency of indels ([5]; Tregs following culture in Dexamethasone) [%] | frequency of out of frame indels ([5]; Tregs prior to Dexamethasone addition) [%] | frequency of out of frame indels ([5]; peripheral blood T cells) [%] | total gene modification rate ([5]; post-Dexamethasone cells, FIG. 4D) [%] | total gene modification rate ([5]; pre-Dexamethasone cells, FIG. 4C) [%] | HDR by inside-out PCR [6] | base editing outcome at the genetic locus [7]
1 | C[C@]12C=CC(=O)C=C1CC[C@@H]1[C@@H]2[C@@H](O)C[C@@]2(C)[C@H]1CC[C@]2(O)C(=O)CO [prednisolone] | improved outcome | significantly better than vehicle control | ineffective | not significantly different than controls | did not offer a survival advantage | 25 | significantly more human CD4+ and CD8+ T cells |  |  |  |  |  |  |  |  | 
2 | GR2: gRNA TTGAGAAGCGACAGCCAGTG (anti-sense), exon 2 of NR3C1 (guide UUGAGAAGCGACAGCCAGUG; RNA, backbone not given here; 5' and 3' phosphorothioate bonds) |  |  |  |  |  |  |  | exhibited the highest activity levels | significantly increased survival | 44 | ~35 | ~40 | 44 | 35 | HDR was observed in Tregs at each MOI | premature TAG stop codon
3 | GR1: gRNA AACCAAAAGTCTTCGCTGCT (anti-sense), exon 2 of NR3C1 (guide AACCAAAAGUCUUCGCUGCU; RNA, backbone not given here; 5' and 3' phosphorothioate bonds) |  |  |  |  |  |  |  | exhibited the highest activity levels |  |  |  |  |  |  |  | premature TAA stop codon
